Results published in patent US20250353853A1, “FLAVIVIRUS INHIBITORS” (IRBM S.P.A., priority 2022, published 2025).
Structures can show the parent of a compound that is named as a salt.

Each molecule was assayed on ZIKV replicon in Vero cells (assay: ZIKV Replication Inhibition Assay (replicon, NanoLuc)). Settings: Zika virus, Vero, 72 h, read-out: Zika Replicon EC50.

SMILES | EC50
CC(Cc1ccccc1)[n+]1cc([N-]C(=O)Nc2cccc(C(F)(F)F)c2)on1 (stereo not drawn) [Example 1, (3-(1-Phenylpropan-2-yl)-1,2,3-oxadiazol-3-ium-5-yl)((3-(trifluoromethyl)phenyl)carbamoyl)amide] | 1 to 20 µM
CC(Cc1ccccc1)[n+]1cc([N-]C(=O)Nc2ccc(C(F)(F)F)cc2)on1 (stereo not drawn) [Example 2, (3-(1-phenylpropan-2-yl)-1,2,3-oxadiazol-3-ium-5-yl)((4-(trifluoromethyl)phenyl)carbamoyl)amide] | > 20 µM
CC(Cc1ccccc1)[n+]1cc([N-]C(=O)Nc2ccc3ccccc3c2)on1 (stereo not drawn) [Example 3, (Naphthalen-2-ylcarbamoyl)(3-(1-phenylpropan-2-yl)-1,2,3-oxadiazol-3-ium-5-yl)amide] | > 20 µM
CC(Cc1ccccc1)[n+]1cc([N-]C(=O)Nc2ncc(C(F)(F)F)s2)on1 (stereo not drawn) [Example 4, (3-(1-phenylpropan-2-yl)-1,2,3-oxadiazol-3-ium-5-yl)((5-(trifluoromethyl)thiazol-2-yl)carbamoyl)amide] | 1 to 20 µM
O=C([N-]c1c[n+](CCc2ccccc2)no1)Nc1cccc(C(F)(F)F)c1 [Example 5, (3-phenethyl-1,2,3-oxadiazol-3-ium-5-yl)((3-(trifluoromethyl)phenyl)carbamoyl)amide] | 0.1 to 1 µM
O=C([N-]c1c[n+](Cc2ccccc2)no1)Nc1cccc(C(F)(F)F)c1 [Example 6, (3-Benzyl-1,2,3-oxadiazol-3-ium-5-yl)((3-(trifluoromethyl)phenyl)carbamoyl) amide] | 1 to 20 µM
O=C([N-]c1c[n+](-c2ccccc2)no1)Nc1cccc(C(F)(F)F)c1 [Example 7, (3-phenyl-1,2,3-oxadiazol-3-ium-5-yl)((3-(trifluoromethyl)phenyl)carbamoyl) amide] | 1 to 20 µM
CC(Cc1ccccc1)[n+]1cc([N-]C(=O)Nc2cccc(Cl)c2)on1 (stereo not drawn) [Example 8, ((3-chlorophenyl)carbamoyl)(3-(1-phenylpropan-2-yl)-1,2,3-oxadiazol-3-ium-5-yl)amide] | > 20 µM
CC(Cc1ccc(Cl)c(Cl)c1)[n+]1cc([N-]C(=O)Nc2cccc(C(F)(F)F)c2)on1 (stereo not drawn) [Example 9, (3-(1-(3,4-dichlorophenyl)propan-2-yl)-1,2,3-oxadiazol-3-ium-5-yl)((3-(trifluoromethyl)phenyl)carbamoyl)amide] | 1 to 20 µM
O=C([N-]c1c[n+](C2Cc3ccccc3C2)no1)Nc1cccc(C(F)(F)F)c1 [Example 10, (3-(2,3-dihydro-1H-inden-2-yl)-1,2,3-oxadiazol-3-ium-5-yl)((3-(trifluoromethyl)phenyl)carbamoyl)amide] | 1 to 20 µM
CC(Cc1ccccc1)[n+]1cc([N-]C(=O)Nc2cc(F)cc(C(F)(F)F)c2)on1 (stereo not drawn) [Example 11, ((3-fluoro-5-(trifluoromethyl)phenyl)carbamoyl)(3-(1-phenylpropan-2-yl)-1,2,3-oxadiazol-3-ium-5-yl)amide] | > 20 µM
CC(Cc1ccccc1)[n+]1cc([N-]C(=O)Nc2ccc3ncccc3c2)on1 (stereo not drawn) [Example 12, (3-(1-phenylpropan-2-yl)-1,2,3-oxadiazol-3-ium-5-yl)(quinolin-6-ylcarbamoyl) amide] | > 20 µM
C[C@H](Cc1ccccc1)[n+]1cc([N-]C(=O)Nc2cccc(C(F)(F)F)c2)on1 [Example 13, (R)-(3-(1-phenylpropan-2-yl)-1,2,3-oxadiazol-3-ium-5-yl)((3-(trifluoromethyl)phenyl)carbamoyl)amide] | 1 to 20 µM
C[C@@H](Cc1ccccc1)[n+]1cc([N-]C(=O)Nc2cccc(C(F)(F)F)c2)on1 [Example 14, (S)-(3-(1-phenylpropan-2-yl)-1,2,3-oxadiazol-3-ium-5-yl)((3-(trifluoromethyl)phenyl)carbamoyl)amide] | > 20 µM
CC(Cc1ccccc1)[n+]1cc([N-]C(=O)Nc2cncc(C(F)(F)F)c2)on1 (stereo not drawn) [Example 15, (3-(1-Phenylpropan-2-yl)-1,2,3-oxadiazol-3-ium-5-yl)((5-(trifluoromethyl)pyridin-3-yl)carbamoyl)amide] | 1 to 20 µM
CC(Cc1ccccc1)[n+]1cc([N-]C(=O)Nc2cc(C(F)(F)F)ccn2)on1 (stereo not drawn) [Example 16, (3-(1-phenylpropan-2-yl)-1,2,3-oxadiazol-3-ium-5-yl)((4-(trifluoromethyl)pyridin-2-yl)carbamoyl)amide] | > 20 µM
O=C([N-]c1c[n+](Cc2ccc(-c3ccccc3)cc2)no1)Nc1cccc(C(F)(F)F)c1 [Example 17, (3-([1,1′-Biphenyl]-4-ylmethyl)-1,2,3-oxadiazol-3-ium-5-yl)((3-(trifluoromethyl)phenyl)carbamoyl)amide] | 0.1 to 1 µM
O=C([N-]c1c[n+](Cc2ccc3ccccc3c2)no1)Nc1cccc(C(F)(F)F)c1 [Example 18, (3-(naphthalen-2-ylmethyl)-1,2,3-oxadiazol-3-ium-5-yl)((3-(trifluoromethyl)phenyl)carbamoyl)amide] | 1 to 20 µM

SMILES | EC50
O=C([N-]c1c[n+](Cc2ccc(-c3ccsc3)cc2)no1)Nc1cccc(C(F)(F)F)c1 [Example 20, (3-(4-(thiophen-3-yl)benzyl)-1,2,3-oxadiazol-3-ium-5-yl)((3(trifluoromethyl)phenyl)carbamoyl)amide] | 0.1 to 1 µM
Cc1ccccc1-c1ccc(C[n+]2cc([N-]C(=O)Nc3cccc(C(F)(F)F)c3)on2)cc1 [Example 21, (3-((2′-methyl-[1,1′-biphenyl]-4-yl)methyl)-1,2,3-oxadiazol-3-ium-5-yl)((3-(trifluoromethyl)phenyl)carbamoyl)amide] | 0.1 to 1 µM
O=C([N-]c1on[n+](Cc2ccccc2)c1Cl)Nc1cccc(C(F)(F)F)c1 [Example 24, (3-Benzyl-4-chloro-1,2,3-oxadiazol-3-ium-5-yl)((3-(trifluoromethyl)phenyl)carbamoyl)amide] | > 20 µM
O=C([N-]c1c[n+](C2(c3ccccc3)CC2)no1)Nc1cccc(C(F)(F)F)c1 [Example 25, (3-(1-phenylcyclopropyl)-1,2,3-oxadiazol-3-ium-5-yl)((3-(trifluoromethyl)phenyl)carbamoyl)amide] | 1 to 20 µM
O=C([N-]c1c[n+](Cc2cccc(-c3ccccc3)c2)no1)Nc1cccc(C(F)(F)F)c1 [Example 27, (3-([1,1′-biphenyl]-3-ylmethyl)-1,2,3-oxadiazol-3-ium-5-yl)((3-(trifluoromethyl)phenyl)carbamoyl)amide] | 1 to 20 µM
CC(C[n+]1cc([N-]C(=O)Nc2cccc(C(F)(F)F)c2)on1)c1ccccc1 (stereo not drawn) [Example 28, (3-(2-phenylpropyl)-1,2,3-oxadiazol-3-ium-5-yl)((3-(trifluoromethyl)phenyl)carbamoyl)amide] | 0.1 to 1 µM
O=C([N-]c1c[n+](Cc2cccnc2)no1)Nc1cccc(C(F)(F)F)c1 [Example 29, (3-(pyridin-3-ylmethyl)-1,2,3-oxadiazol-3-ium-5-yl)((3-(trifluoromethyl)phenyl)carbamoyl)amide] | 1 to 20 µM
O=C([N-]c1c[n+]([C@@H](CO)c2ccccc2)no1)Nc1cccc(C(F)(F)F)c1 [Example 30, (R)-(3-(2-hydroxy-1-phenylethyl)-1,2,3-oxadiazol-3-ium-5-yl)((3-(trifluoromethyl)phenyl)carbamoyl)amide] | 1 to 20 µM
O=C([N-]c1c[n+]([C@H](CO)c2ccccc2)no1)Nc1cccc(C(F)(F)F)c1 [Example 31, (S)-(3-(2-hydroxy-1-phenylethyl)-1,2,3-oxadiazol-3-ium-5-yl)((3-(trifluoromethyl)phenyl)carbamoyl)amide] | > 20 µM
O=C([N-]c1c[n+]([C@H](CO)Cc2ccccc2)no1)Nc1cccc(C(F)(F)F)c1 [Example 32, (S)-(3-(1-hydroxy-3-phenylpropan-2-yl)-1,2,3-oxadiazol-3-ium-5-yl)((3-(trifluoromethyl)phenyl)carbamoyl)amide] | 1 to 20 µM
Cc1cc(NC(=O)[N-]c2c[n+](C(C)Cc3ccccc3)no2)cc(C(F)(F)F)c1 (stereo not drawn) [Example 33, ((3-methyl-5-(trifluoromethyl)phenyl)carbamoyl)(3-(1-phenylpropan-2-yl)-1,2,3-oxadiazol-3-ium-5-yl)amide] | > 20 µM
COc1cc(NC(=O)[N-]c2c[n+](C(C)Cc3ccccc3)no2)cc(C(F)(F)F)c1 (stereo not drawn) [Example 34, ((3-methoxy-5-(trifluoromethyl)phenyl)carbamoyl)(3-(1-phenylpropan-2-yl)-1,2,3-oxadiazol-3-ium-5-yl)amide] | > 20 µM
C=C(c1ccccc1)[n+]1cc([N-]C(=O)Nc2cccc(C(F)(F)F)c2)on1 [Example 35, (3-(1-Phenylvinyl)-1,2,3-oxadiazol-3-ium-5-yl)((3-(trifluoromethyl)phenyl)carbamoyl)amide] | 1 to 20 µM
C=C(Cc1ccccc1)[n+]1cc([N-]C(=O)Nc2cccc(C(F)(F)F)c2)on1 [Example 36, (3-(3-phenylprop-1-en-2-yl)-1,2,3-oxadiazol-3-ium-5-yl)((3-(trifluoromethyl)phenyl)carbamoyl)amide] | > 20 µM
O=C([N-]c1c[n+]([C@H](CF)Cc2ccccc2)no1)Nc1cccc(C(F)(F)F)c1 [Example 37, (S)-(3-(1-fluoro-3-phenylpropan-2-yl)-1,2,3-oxadiazol-3-ium-5-yl)((3-(trifluoromethyl)phenyl)carbamoyl)amide] | > 20 µM
CC(c1ccccc1)[n+]1cc([N-]C(=O)Nc2cccc(C(F)(F)F)c2)on1 (stereo not drawn) [Example 38, (3-(1-phenylethyl)-1,2,3-oxadiazol-3-ium-5-yl)((3-(trifluoromethyl)phenyl)carbamoyl)amide] | 1 to 20 µM
Cc1nc(OCCN(C)C)ncc1-c1ccc(C[n+]2cc([N-]C(=O)Nc3cccc(C(F)(F)F)c3)on2)nc1 [Example 43, (3-((5-(2-(2-(dimethylamino)ethoxy)-4-methylpyrimidin-5-yl)pyridin-2-yl)methyl)-1,2,3-oxadiazol-3-ium-5-yl)((3-(trifluoromethyl)phenyl)carbamoyl)amide] | 0.1 to 1 µM
NC[C@@H](Cc1ccccc1)[n+]1cc([N-]C(=O)Nc2cccc(C(F)(F)F)c2)on1 [Example 49, (R)-(3-(1-amino-3-phenylpropan-2-yl)-1,2,3-oxadiazol-3-ium-5-yl)((3-(trifluoromethyl)phenyl)carbamoyl)amide formate] | > 20 µM
